ChEMBL document CHEMBL3272136, “A new series of cardioselective adrenergic beta-receptor blocking compounds. 1-(2-Acyl-4-acylaminophenoxy)-3-isopropylaminopropan-2-ols” (1976)

tested on: Felis catus; assay: In vivo beta-2 adrenergic receptor blocking activity in iv dosed cat assessed as half dose required for desensitizing isoproterenol-induced diastolic hypotensive response after 3.5 mins; assay type: functional

Point of comparison: `CCCCCCC(=O)Nc1ccc(OCC(O)CNC(C)C)c(C(C)=O)c1` (centres undefined), Activity 0.5 mg/kg. Against it:
- CCCCC(=O)Nc1ccc(OCC(O)CNC(C)C)c(C(C)=O)c1 (centres undefined) — 1.8-fold higher, 0.89 mg/kg
- CCCCCC(=O)Nc1ccc(OCC(O)CNC(C)C)c(C(C)=O)c1 (centres undefined) — 1.7-fold higher, 0.85 mg/kg
- CCC(=O)Nc1ccc(OCC(O)CNC(C)C)c(C(=O)CC)c1 (centres undefined) — within 1.5-fold, 0.41 mg/kg
- CCCC(=O)Nc1ccc(OCC(O)CNC(C)C)c(C(=O)CC)c1 (centres undefined) — 2.2-fold higher, 1.12 mg/kg
- CCCC(=O)Nc1ccc(OCC(O)CNC(C)C)c(C(=O)CCC)c1 (centres undefined) — 9.6-fold higher, 4.78 mg/kg
- CC(=O)c1cc(NC(=O)C(C)C)ccc1OCC(O)CNC(C)C (centres undefined) — 3.7-fold higher, 1.85 mg/kg
- CC(=O)c1cc(NC(=O)CC(C)C)ccc1OCC(O)CNC(C)C (centres undefined) — 4.2-fold higher, 2.1 mg/kg
- CC(=O)c1cc(NC(=O)Cc2ccccc2)ccc1OCC(O)CNC(C)C (centres undefined) — 3.1-fold lower, 0.16 mg/kg
- CC(=O)c1cc(NC(=O)c2ccccc2)ccc1OCC(O)CNC(C)C (centres undefined) — 2-fold higher, 1 mg/kg
- CCC(=O)Nc1ccc(OCC(O)CNC(C)C)c(C(C)=O)c1 (racemic) — within 1.5-fold, 0.52 mg/kg
- CCCCCCCC(=O)Nc1ccc(OCC(O)CNC(C)C)c(C(C)=O)c1 (racemic) — within 1.5-fold, 0.692 mg/kg
- CCCC(=O)Nc1ccc(OCC(O)CNC(C)C)c(C(C)=O)c1 (centres undefined) [ACEBUTOLOL] — 5.2-fold higher, 2.6 mg/kg
- CC(=O)Nc1ccc(OCC(O)CNC(C)C)c(C(C)=O)c1 (centres undefined) [DIACETOLOL] — 1.6-fold lower, 0.32 mg/kg
- CC(=O)Nc1ccc(OCC(O)CNC(C)C)cc1 (centres undefined) [PRACTOLOL] — 3.2-fold higher, 1.6 mg/kg

tested on: Canis familiaris; assay: Antiarrhythmic activity in iv dosed dog assessed as dose required for reversal of ouabain-induced cardiac arrhythmia; assay type: functional, Canis lupus familiaris, Heart

Point of comparison: `CCC(=O)Nc1ccc(OCC(O)CNC(C)C)c(C(=O)CC)c1` (centres undefined), Activity 6.4 mg/kg. Against it:
- CCCCC(=O)Nc1ccc(OCC(O)CNC(C)C)c(C(C)=O)c1 (centres undefined) — within 1.5-fold, 4.8 mg/kg
- CCCCCC(=O)Nc1ccc(OCC(O)CNC(C)C)c(C(C)=O)c1 (centres undefined) — 2-fold lower, 3.2 mg/kg
- CCCCCCC(=O)Nc1ccc(OCC(O)CNC(C)C)c(C(C)=O)c1 (centres undefined) — 2.4-fold lower, 2.7 mg/kg
- CCCC(=O)Nc1ccc(OCC(O)CNC(C)C)c(C(=O)CC)c1 (centres undefined) — within 1.5-fold, 6.1 mg/kg
- CCCC(=O)Nc1ccc(OCC(O)CNC(C)C)c(C(=O)CCC)c1 (centres undefined) — 1.8-fold lower, 3.5 mg/kg
- CC(=O)c1cc(NC(=O)C(C)C)ccc1OCC(O)CNC(C)C (centres undefined) — 2.7-fold higher, 17.2 mg/kg
- CC(=O)c1cc(NC(=O)CC(C)C)ccc1OCC(O)CNC(C)C (centres undefined) — 1.7-fold lower, 3.8 mg/kg
- CC(=O)c1cc(NC(=O)Cc2ccccc2)ccc1OCC(O)CNC(C)C (centres undefined) — 2-fold higher, 12.6 mg/kg
- CC(=O)c1cc(NC(=O)c2ccccc2)ccc1OCC(O)CNC(C)C (centres undefined) — within 1.5-fold, 5.8 mg/kg
- CCC(=O)Nc1ccc(OCC(O)CNC(C)C)c(C(C)=O)c1 (racemic) — 3.5-fold higher, 22.5 mg/kg
- CCCCCCCC(=O)Nc1ccc(OCC(O)CNC(C)C)c(C(C)=O)c1 (racemic) — 1.6-fold lower, 3.9 mg/kg
- CCCC(=O)Nc1ccc(OCC(O)CNC(C)C)c(C(C)=O)c1 (centres undefined) [ACEBUTOLOL] — within 1.5-fold, 8.1 mg/kg

`CC(=O)Nc1ccc(OCC(O)CNC(C)C)c(C(C)=O)c1` (centres undefined) [DIACETOLOL] was tested, and the Activity was over 15 mg/kg.
`CC(=O)Nc1ccc(OCC(O)CNC(C)C)cc1` (centres undefined) [PRACTOLOL] was tested, and the Activity was over 35 mg/kg.

tested on: Felis catus; assay: In vivo beta-1 adrenergic receptor blocking activity in iv dosed cat assessed as half dose required for desensitizing isoproterenol-induced tachycardia after 3.5 mins; assay type: functional

Point of comparison: `CC(=O)c1cc(NC(=O)C(C)C)ccc1OCC(O)CNC(C)C` (centres undefined), Activity 0.1 mg/kg. Against it:
- CCCCC(=O)Nc1ccc(OCC(O)CNC(C)C)c(C(C)=O)c1 (centres undefined) — 3-fold lower, 0.033 mg/kg
- CCCCCC(=O)Nc1ccc(OCC(O)CNC(C)C)c(C(C)=O)c1 (centres undefined) — 3.4-fold lower, 0.029 mg/kg
- CCCCCCC(=O)Nc1ccc(OCC(O)CNC(C)C)c(C(C)=O)c1 (centres undefined) — 2.5-fold lower, 0.04 mg/kg
- CCC(=O)Nc1ccc(OCC(O)CNC(C)C)c(C(=O)CC)c1 (centres undefined) — 3.8-fold lower, 0.026 mg/kg
- CCCC(=O)Nc1ccc(OCC(O)CNC(C)C)c(C(=O)CC)c1 (centres undefined) — within 1.5-fold, 0.079 mg/kg
- CCCC(=O)Nc1ccc(OCC(O)CNC(C)C)c(C(=O)CCC)c1 (centres undefined) — 2.3-fold higher, 0.23 mg/kg
- CC(=O)c1cc(NC(=O)CC(C)C)ccc1OCC(O)CNC(C)C (centres undefined) — within 1.5-fold, 0.11 mg/kg
- CC(=O)c1cc(NC(=O)Cc2ccccc2)ccc1OCC(O)CNC(C)C (centres undefined) — 3.3-fold lower, 0.03 mg/kg
- CC(=O)c1cc(NC(=O)c2ccccc2)ccc1OCC(O)CNC(C)C (centres undefined) — 5.4-fold higher, 0.54 mg/kg
- CCC(=O)Nc1ccc(OCC(O)CNC(C)C)c(C(C)=O)c1 (racemic) — 1.6-fold lower, 0.063 mg/kg
- CCCCCCCC(=O)Nc1ccc(OCC(O)CNC(C)C)c(C(C)=O)c1 (racemic) — 2-fold lower, 0.05 mg/kg
- CCCC(=O)Nc1ccc(OCC(O)CNC(C)C)c(C(C)=O)c1 (centres undefined) [ACEBUTOLOL] — within 1.5-fold, 0.13 mg/kg
- CC(=O)Nc1ccc(OCC(O)CNC(C)C)c(C(C)=O)c1 (centres undefined) [DIACETOLOL] — within 1.5-fold, 0.089 mg/kg
- CC(=O)Nc1ccc(OCC(O)CNC(C)C)cc1 (centres undefined) [PRACTOLOL] — 1.6-fold higher, 0.158 mg/kg

tested on: Felis catus; assay: Ratio of in vivo beta-2 adrenergic receptor blocking activity in iv dosed cat assessed as half dose required for desensitizing isoproterenol-induced diastolic hypotensive response to in vivo beta-1 adrenergic receptor blocking activity in iv dosed cat assessed as half dose required for desensitizing isoproterenol-induced tachycardia; assay type: functional

Point of comparison: `CC(=O)Nc1ccc(OCC(O)CNC(C)C)c(C(C)=O)c1` (centres undefined) [DIACETOLOL], Ratio 3.59. Against it:
- CCCCC(=O)Nc1ccc(OCC(O)CNC(C)C)c(C(C)=O)c1 (centres undefined) — higher, 27
- CCCCCC(=O)Nc1ccc(OCC(O)CNC(C)C)c(C(C)=O)c1 (centres undefined) — higher, 29.31
- CCCCCCC(=O)Nc1ccc(OCC(O)CNC(C)C)c(C(C)=O)c1 (centres undefined) — higher, 12.5
- CCC(=O)Nc1ccc(OCC(O)CNC(C)C)c(C(=O)CC)c1 (centres undefined) — higher, 15.77
- CCCC(=O)Nc1ccc(OCC(O)CNC(C)C)c(C(=O)CC)c1 (centres undefined) — higher, 14.18
- CCCC(=O)Nc1ccc(OCC(O)CNC(C)C)c(C(=O)CCC)c1 (centres undefined) — higher, 20.78
- CC(=O)c1cc(NC(=O)C(C)C)ccc1OCC(O)CNC(C)C (centres undefined) — higher, 18.5
- CC(=O)c1cc(NC(=O)CC(C)C)ccc1OCC(O)CNC(C)C (centres undefined) — higher, 19.09
- CC(=O)c1cc(NC(=O)Cc2ccccc2)ccc1OCC(O)CNC(C)C (centres undefined) — higher, 5.33
- CCC(=O)Nc1ccc(OCC(O)CNC(C)C)c(C(C)=O)c1 (racemic) — higher, 8.25
- CCCCCCCC(=O)Nc1ccc(OCC(O)CNC(C)C)c(C(C)=O)c1 (racemic) — higher, 13.84
- CCCC(=O)Nc1ccc(OCC(O)CNC(C)C)c(C(C)=O)c1 (centres undefined) [ACEBUTOLOL] — higher, 20
- CC(=O)Nc1ccc(OCC(O)CNC(C)C)cc1 (centres undefined) [PRACTOLOL] — higher, 10.13
